What was measured:
[1] = target: Leukocyte tyrosine kinase receptor (Homo sapiens) (UniProt P29376); assay: Inhibition of human recombinant LTK at 40 nM in presence of ATP by radiometric assay relative to control
[2] = target: T1, Myosin-IIIb (Homo sapiens) (UniProt Q8WXR4); assay: Inhibition of human recombinant MYO3B at 40 nM in presence of ATP by radiometric assay relative to control
T1 sequence (whole entry): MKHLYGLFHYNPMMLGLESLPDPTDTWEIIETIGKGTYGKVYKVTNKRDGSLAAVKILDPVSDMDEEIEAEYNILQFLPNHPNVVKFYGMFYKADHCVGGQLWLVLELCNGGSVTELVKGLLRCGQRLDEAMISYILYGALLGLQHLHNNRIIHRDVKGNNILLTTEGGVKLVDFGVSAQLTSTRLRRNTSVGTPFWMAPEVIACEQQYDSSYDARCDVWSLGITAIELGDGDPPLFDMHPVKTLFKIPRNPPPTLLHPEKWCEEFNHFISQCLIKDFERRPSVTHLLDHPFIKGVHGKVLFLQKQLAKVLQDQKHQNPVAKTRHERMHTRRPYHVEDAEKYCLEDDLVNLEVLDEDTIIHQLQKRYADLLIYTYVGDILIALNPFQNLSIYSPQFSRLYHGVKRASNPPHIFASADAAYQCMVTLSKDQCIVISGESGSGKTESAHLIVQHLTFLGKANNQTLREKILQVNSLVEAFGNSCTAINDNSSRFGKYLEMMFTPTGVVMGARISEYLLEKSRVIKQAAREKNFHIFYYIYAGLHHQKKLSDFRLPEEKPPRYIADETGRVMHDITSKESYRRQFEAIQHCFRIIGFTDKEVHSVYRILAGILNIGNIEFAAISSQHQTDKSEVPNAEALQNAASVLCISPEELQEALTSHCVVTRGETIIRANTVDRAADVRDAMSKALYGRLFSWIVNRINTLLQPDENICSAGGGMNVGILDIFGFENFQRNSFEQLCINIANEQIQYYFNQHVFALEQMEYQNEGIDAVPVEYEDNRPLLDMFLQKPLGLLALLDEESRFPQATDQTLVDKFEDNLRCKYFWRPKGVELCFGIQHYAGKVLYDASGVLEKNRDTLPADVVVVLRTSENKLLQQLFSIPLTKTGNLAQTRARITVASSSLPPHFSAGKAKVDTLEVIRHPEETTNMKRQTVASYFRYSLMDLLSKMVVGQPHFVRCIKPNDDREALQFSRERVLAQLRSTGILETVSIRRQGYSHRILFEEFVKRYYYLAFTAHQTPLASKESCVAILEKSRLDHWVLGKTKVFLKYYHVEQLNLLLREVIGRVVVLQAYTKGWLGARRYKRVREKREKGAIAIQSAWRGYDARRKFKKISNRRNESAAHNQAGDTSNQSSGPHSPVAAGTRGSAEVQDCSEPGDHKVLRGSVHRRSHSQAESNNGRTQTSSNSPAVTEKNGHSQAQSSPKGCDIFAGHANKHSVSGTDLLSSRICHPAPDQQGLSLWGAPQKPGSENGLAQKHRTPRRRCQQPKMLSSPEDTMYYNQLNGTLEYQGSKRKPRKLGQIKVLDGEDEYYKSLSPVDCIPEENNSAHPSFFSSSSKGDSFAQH

[3] = target: T2, Phosphorylase b kinase gamma catalytic chain, liver/testis isoform (Homo sapiens) (UniProt P15735); assay: Inhibition of human recombinant PHKg2 at 40 nM in presence of ATP by radiometric assay relative to control
T2 sequence (whole entry): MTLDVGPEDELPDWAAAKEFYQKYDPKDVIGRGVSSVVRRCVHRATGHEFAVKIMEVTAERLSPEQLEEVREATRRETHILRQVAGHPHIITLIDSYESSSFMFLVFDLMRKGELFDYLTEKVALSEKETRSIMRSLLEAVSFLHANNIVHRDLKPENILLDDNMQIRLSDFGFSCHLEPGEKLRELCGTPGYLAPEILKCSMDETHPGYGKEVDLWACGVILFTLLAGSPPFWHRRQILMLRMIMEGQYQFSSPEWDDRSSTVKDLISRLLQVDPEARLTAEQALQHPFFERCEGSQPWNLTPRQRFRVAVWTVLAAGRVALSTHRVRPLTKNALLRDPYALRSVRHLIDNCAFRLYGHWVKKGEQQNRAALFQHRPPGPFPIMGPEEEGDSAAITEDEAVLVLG

[4] = target: T3, Inhibitor of nuclear factor kappa-B kinase subunit beta (Homo sapiens) (UniProt O14920); assay: Inhibition of human recombinant IKKb at 40 nM related to control ULK1
T3 sequence (whole entry): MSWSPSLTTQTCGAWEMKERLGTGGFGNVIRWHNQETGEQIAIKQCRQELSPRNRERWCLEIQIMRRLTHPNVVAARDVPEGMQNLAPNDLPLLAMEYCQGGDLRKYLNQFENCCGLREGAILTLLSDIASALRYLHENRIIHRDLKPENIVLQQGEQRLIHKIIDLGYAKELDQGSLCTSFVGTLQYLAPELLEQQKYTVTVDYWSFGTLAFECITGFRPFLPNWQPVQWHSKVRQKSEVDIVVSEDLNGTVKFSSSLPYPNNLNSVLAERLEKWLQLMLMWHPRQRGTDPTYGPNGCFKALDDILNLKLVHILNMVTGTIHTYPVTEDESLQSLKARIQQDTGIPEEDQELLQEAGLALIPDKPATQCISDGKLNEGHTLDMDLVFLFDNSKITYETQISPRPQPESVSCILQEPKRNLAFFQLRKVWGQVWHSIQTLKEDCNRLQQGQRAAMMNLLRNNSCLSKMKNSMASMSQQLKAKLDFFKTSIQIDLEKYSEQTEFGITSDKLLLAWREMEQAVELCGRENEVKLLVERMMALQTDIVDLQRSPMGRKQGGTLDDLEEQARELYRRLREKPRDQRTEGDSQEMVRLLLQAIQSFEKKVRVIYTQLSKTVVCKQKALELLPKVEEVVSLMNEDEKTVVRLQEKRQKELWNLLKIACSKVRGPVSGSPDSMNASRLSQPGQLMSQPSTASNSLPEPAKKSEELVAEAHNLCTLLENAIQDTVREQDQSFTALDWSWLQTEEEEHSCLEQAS

[5] = target: Serine/threonine-protein kinase 24 (Homo sapiens) (UniProt Q9Y6E0); assay: Inhibition of human recombinant MST3 at 15 nM in presence of ATP by radiometric assay relative to control
[6] = target: Mitogen-activated protein kinase 14 (Homo sapiens) (UniProt Q16539); assay: Inhibition of human recombinant p38alpha at 15 nM related to control ULK1
[7] = target: Platelet-derived growth factor receptor alpha (Homo sapiens) (UniProt P16234); assay: Inhibition of human recombinant PDGFRa at 15 nM related to control ULK1
Sequence of Platelet-derived growth factor receptor alpha (Homo sapiens) (P16234 whole entry): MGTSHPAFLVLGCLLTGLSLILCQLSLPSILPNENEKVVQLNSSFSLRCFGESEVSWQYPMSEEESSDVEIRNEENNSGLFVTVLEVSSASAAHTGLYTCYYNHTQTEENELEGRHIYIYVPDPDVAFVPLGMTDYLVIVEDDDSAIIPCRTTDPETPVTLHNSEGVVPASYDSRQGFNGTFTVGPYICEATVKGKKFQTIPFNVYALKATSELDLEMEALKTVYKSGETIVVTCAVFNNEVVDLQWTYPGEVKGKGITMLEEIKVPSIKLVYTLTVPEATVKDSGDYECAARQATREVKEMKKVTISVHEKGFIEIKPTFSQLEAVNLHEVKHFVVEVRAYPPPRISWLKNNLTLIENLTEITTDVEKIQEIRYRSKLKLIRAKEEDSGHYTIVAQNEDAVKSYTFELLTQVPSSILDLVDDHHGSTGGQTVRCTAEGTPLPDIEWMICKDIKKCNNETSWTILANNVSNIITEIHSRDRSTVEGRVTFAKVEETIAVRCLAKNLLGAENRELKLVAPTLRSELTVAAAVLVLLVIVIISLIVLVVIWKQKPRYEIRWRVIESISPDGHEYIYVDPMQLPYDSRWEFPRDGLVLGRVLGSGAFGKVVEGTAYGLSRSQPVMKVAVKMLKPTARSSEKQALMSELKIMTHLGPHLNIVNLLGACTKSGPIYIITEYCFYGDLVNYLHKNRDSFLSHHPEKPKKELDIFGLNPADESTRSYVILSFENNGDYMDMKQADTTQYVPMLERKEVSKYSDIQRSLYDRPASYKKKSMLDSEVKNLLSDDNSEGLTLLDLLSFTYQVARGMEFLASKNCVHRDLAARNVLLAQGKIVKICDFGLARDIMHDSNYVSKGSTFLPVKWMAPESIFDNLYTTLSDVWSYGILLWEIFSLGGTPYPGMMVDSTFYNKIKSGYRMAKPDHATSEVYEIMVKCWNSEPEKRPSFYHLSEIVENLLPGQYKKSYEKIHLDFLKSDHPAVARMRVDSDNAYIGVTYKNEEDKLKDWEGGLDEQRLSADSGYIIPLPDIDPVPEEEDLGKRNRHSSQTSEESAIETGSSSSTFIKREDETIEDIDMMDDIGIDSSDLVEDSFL

Sequence of Serine/threonine-protein kinase 24 (Homo sapiens) (Q9Y6E0 whole entry, looked up): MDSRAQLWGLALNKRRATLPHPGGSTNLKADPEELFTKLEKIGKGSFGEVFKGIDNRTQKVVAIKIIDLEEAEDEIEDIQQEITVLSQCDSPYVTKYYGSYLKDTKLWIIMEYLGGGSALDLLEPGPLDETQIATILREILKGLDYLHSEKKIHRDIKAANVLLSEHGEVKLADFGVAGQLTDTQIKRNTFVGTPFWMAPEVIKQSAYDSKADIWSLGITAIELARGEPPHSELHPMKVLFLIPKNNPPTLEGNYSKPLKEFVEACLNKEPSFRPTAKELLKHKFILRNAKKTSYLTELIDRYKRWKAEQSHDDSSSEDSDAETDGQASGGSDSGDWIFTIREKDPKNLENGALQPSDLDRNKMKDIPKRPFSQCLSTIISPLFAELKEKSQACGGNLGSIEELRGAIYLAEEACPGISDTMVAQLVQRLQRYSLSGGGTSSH
Sequence of Mitogen-activated protein kinase 14 (Homo sapiens) (Q16539 whole entry): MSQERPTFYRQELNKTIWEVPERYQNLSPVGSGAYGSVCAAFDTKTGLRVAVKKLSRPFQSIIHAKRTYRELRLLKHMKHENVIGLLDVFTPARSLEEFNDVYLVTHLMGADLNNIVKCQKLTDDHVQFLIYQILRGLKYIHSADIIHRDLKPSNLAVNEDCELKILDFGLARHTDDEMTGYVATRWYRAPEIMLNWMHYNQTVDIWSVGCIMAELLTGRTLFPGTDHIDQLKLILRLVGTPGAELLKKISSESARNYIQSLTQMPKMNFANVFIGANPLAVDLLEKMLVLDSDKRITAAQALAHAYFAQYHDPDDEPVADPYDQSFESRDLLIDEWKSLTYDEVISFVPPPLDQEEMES
Sequence of Leukocyte tyrosine kinase receptor (Homo sapiens) (P29376 whole entry): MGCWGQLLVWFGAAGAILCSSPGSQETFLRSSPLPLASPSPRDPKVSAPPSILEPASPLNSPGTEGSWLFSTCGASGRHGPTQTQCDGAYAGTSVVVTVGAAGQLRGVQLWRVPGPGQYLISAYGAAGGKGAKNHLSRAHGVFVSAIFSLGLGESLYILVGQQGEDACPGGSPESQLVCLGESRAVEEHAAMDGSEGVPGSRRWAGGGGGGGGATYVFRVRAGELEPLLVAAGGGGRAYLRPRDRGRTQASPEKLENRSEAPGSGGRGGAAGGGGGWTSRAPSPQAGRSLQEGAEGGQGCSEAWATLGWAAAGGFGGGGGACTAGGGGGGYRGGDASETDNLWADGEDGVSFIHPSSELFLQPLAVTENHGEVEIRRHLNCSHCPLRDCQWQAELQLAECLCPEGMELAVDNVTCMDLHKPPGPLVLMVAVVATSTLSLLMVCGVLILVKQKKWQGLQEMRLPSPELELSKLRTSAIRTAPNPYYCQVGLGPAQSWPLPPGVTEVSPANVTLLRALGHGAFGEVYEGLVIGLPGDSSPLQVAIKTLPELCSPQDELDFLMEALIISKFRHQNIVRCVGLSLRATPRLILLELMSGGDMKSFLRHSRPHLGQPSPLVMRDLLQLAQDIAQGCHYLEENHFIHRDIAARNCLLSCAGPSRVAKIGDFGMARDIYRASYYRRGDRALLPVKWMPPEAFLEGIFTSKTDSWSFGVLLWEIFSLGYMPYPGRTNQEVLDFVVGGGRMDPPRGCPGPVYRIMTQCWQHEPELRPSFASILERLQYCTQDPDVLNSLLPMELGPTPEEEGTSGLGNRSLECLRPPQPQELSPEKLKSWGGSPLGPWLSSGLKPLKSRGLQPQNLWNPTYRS

**Q.** Which results are given for `O=C(N[C@@H](C1CC1)C(F)(F)F)c1cc(-c2cnn3cc(-c4ccc(F)cc4)cnc23)cs1`?
**A.** inhibition [1]: 0%; inhibition [2]: 0%; inhibition [3]: 0%; fold change (FC) [4]: 0

**Q.** Which inhibition [5] does the source give for `CC(C)[C@H](NC(=O)c1cc(-c2cnn3cc(-c4ccc(OCCN5CCCCC5)cc4)cnc23)cs1)C(F)(F)F` here?
**A.** 0%

**Q.** And the fold change (FC) [6]?
**A.** 0.06

**Q.** And the fold change (FC) [7]?
**A.** 0.06

Reference: ChEMBL document CHEMBL5653631, “A Potent and Selective ULK1 Inhibitor Suppresses Autophagy and Sensitizes Cancer Cells to Nutrient Stress” (iScience, 2018)
